Experimental data from patent US20060270634A1, “Acetal phosphate-derived LPA mimics, PPARgamma activators, and autotaxin inhibitors” (priority 2005, published 2006).
Like-named read-outs stand apart in the source and are kept apart here. Each block holds one compound with its values, some of them ahead of it.

Experiments:
LPA1 = LPA1 (Homo sapiens, UniProt Q92633); assay: Ca2+ transients in RH7777 cells expressing LPA1 (agonist / inhibition of LPA response); details: for LPA1 effect in words: Tables 2, 4, 6
Sequence of LPA1 (Q92633 whole entry, species assumed): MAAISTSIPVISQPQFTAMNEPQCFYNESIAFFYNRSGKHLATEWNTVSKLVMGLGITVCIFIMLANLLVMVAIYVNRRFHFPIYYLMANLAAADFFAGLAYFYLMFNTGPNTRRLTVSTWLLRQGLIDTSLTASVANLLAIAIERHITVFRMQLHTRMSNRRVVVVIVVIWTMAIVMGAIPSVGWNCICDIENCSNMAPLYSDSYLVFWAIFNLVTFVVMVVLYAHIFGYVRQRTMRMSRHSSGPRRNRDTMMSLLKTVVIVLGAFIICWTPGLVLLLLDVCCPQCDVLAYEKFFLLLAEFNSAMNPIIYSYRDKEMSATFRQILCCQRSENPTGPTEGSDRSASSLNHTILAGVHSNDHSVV

LPA3 = target: T1, LPA3 (Homo sapiens, UniProt Q9UBY5); assay: Ca2+ transients in RH7777 cells expressing LPA3 (agonist / inhibition of LPA response)
T1 sequence (Q9UBY5 1-353): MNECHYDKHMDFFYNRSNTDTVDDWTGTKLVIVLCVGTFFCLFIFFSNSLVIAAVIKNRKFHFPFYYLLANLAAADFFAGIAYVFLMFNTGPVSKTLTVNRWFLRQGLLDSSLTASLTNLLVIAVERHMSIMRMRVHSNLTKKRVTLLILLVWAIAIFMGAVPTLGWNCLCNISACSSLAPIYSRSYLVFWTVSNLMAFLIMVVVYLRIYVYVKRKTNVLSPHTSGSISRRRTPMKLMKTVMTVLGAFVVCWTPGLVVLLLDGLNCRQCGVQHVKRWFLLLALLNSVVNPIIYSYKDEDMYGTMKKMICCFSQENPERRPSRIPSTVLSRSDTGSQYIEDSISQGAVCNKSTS

LPA2 = LPA2 (Homo sapiens, UniProt Q9HBW0); assay: Ca2+ transients in RH7777 cells expressing LPA2 (agonist / inhibition of LPA response)
Sequence of LPA2 (Q9HBW0 whole entry, species assumed): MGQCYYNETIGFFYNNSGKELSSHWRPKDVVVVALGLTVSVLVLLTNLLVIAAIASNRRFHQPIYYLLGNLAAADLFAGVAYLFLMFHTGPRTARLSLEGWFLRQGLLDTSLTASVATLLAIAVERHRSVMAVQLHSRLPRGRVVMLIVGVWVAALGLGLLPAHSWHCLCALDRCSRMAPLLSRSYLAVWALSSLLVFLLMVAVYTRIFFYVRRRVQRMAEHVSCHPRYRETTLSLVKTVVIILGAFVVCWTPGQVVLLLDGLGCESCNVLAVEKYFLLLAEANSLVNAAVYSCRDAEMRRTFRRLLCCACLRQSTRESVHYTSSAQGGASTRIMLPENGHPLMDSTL

PC3 cells = assay: Calcium mobilization response in PC3 cells; format: cell-based
[1] = read-out: LPA3 IC50, 200 nM LPA

- LPA1 effect in words (LPA1): Weak inhibition
- IC50 (LPA3; [1]): 1510 nM
- EC50 (LPA2; LPA2 EC50, Table 4): ~10000 nM
- LPA2 effect in words (LPA2; Table 4): Weak agonist
SMILES: CCCCCCCCCCCCCCC(F)(F)P(=O)(O)O

SMILES: CCCCCCCCc1ccc(CCCCCCCOP(O)(O)=S)cc1
- EC50 (LPA1; LPA1 EC50): 4830 nM
- LPA1 effect in words (LPA1): Partial agonist
- EC50 (LPA3): 858 nM
- LPA3 effect in words (LPA3; Tables 2, 4, 6): Partial agonist
- EC50 (LPA2; LPA2 EC50, Table 4): 6060 nM
- LPA2 effect in words (LPA2; Table 4): full agonist

- EC50 (LPA1): 21500 nM
- LPA1 effect in words (LPA1): Partial agonist
- IC50 (LPA3): 1760 nM
- LPA2 effect in words (LPA2; Table 4): Weak antagonist
SMILES: CCCCCCCCc1ccc(CCCCCCCOP(=O)(O)O)cc1

- EC50 (LPA1): > 30000 nM
- IC50 (LPA1; LPA1 (nM) IC50, Table 1): 1110 nM
- IC50 (LPA1; LPA1 IC50, text): 1100 nM
- EC50 (LPA3): > 30000 nM
- IC50 (LPA3): 2870 nM
- EC50 (LPA2; LPA2 EC50, text): 1180 nM
SMILES: CCCCCCCCCCCCC1OCC(COP(=O)(O)O)O1 (centres unmarked) [Analog 4]

SMILES: CCCCCCCC/C=C\CCCCCCCC1OCC(COP(=O)([O-])O)O1.[K+] (centres unmarked) [Analog 5]
- EC50 (LPA3): > 30000 nM
- IC50 (LPA3): 527 nM
- LPA3 agonist/antagonist activity in words (LPA3): LPA1/3 antagonist
- LPA2 agonist/antagonist activity in words (LPA2): full LPA2 agonist
- EC50 (LPA2; LPA2 (nM) EC50, Table 1): 68 nM

SMILES: CCCCCCCC/C=C\CCCCCCCC1OCC(COP([O-])(O)=S)O1.[K+] (centres unmarked) [Analog 6]
- IC50 (LPA1): > 30000 nM
- LPA1 agonist/antagonist activity in words (LPA1): pan-agonists
- EC50 (LPA1; LPA1 (nM) EC50, Table 1): 981 nM
- EC50 (LPA3): 639 nM
- IC50 (LPA3): > 30000 nM
- LPA3 agonist/antagonist activity in words (LPA3): pan-agonists
- LPA2 agonist/antagonist activity in words (LPA2): pan-agonists
- EC50 (LPA2; LPA2 (nM) EC50, Table 1): 34 nM

SMILES: CCCCCCCC/C=C\CCCCCCCC1OCC(COP(=O)([O-])O)O1.[K+] (centres unmarked) [Analog 13, 2-Heptadec-8-enyl-(1,3)dioxolan-4yl methyl dipotassium phosphate]
- IC50 (LPA3; [1]): 527 nM
- LPA2 effect in words (LPA2; *transient): full agonist
- EC50 (LPA2; LPA2 EC50, *transient): 68 nM
- IC50 (LPA2; RH-LPA2 cells IC50, inhibition of 200 nM LPA response): 460 nM
- IC50 (LPA2; RH-LPA2 cells IC50, inhibition of 300 nM LPA response): 777 nM
- IC50 (PC3 cells; Homo sapiens, PC-3, read-out: PC3 cells IC50): 1500 nM
- IC50 (PC3 cells; read-out: PC3 cells IC50, listed as 18:1 Δ 9 acetal phosphate): 1040 nM

SMILES: CCCCCCCCc1ccc(CCCCCCC2OCC(COP(=O)(O)O)O2)cc1 (centres unmarked) [Analog 14]
- IC50 (LPA1): 4660 nM
- EC50 (LPA1; LPA1 (nM) EC50, Table 1): > 30000 nM
- EC50 (LPA3): 692 nM
- IC50 (LPA3): > 30000 nM
- IC50 (LPA2): > 30000 nM
- EC50 (LPA2; LPA2 (nM) EC50, Table 1): > 30000 nM

SMILES: CCCCCCCCc1ccc(CCCCCCC2OCC(COP([O-])(O)=S)O2)cc1.[K+] (centres unmarked) [Analog 15]
- LPA1 agonist/antagonist activity in words (LPA1): no effect
- EC50 (LPA1; LPA1 (nM) EC50, Table 1): > 30000 nM
- EC50 (LPA3): > 30000 nM
- IC50 (LPA3): 504 nM
- LPA3 agonist/antagonist activity in words (LPA3): sub-type selective LPA3 antagonist
- IC50 (LPA2): > 30000 nM
- LPA2 agonist/antagonist activity in words (LPA2): no effect
- EC50 (LPA2; LPA2 (nM) EC50, Table 1): > 30000 nM

- EC50 (LPA3): > 30000 nM
- IC50 (LPA3): 484 nM
- EC50 (LPA2; LPA2 (nM) EC50, Table 1): > 10000 nM
- IC50 (LPA2; LPA2 (nM) IC50, Table 1): > 30000 nM
SMILES: CCCCCCCC/C=C\CCCCCCC[C@@H]1OC[C@H](COP(=O)(O)O)O1 [Analog 21]

SMILES: CCCCCCCC/C=C\CCCCCCC[C@@H]1OC[C@H](COP(O)(O)=S)O1 [Analog 22]
- EC50 (LPA3): 204 nM
- IC50 (LPA3): > 30000 nM
- IC50 (LPA2): > 30000 nM
- EC50 (LPA2; LPA2 (nM) EC50, Table 1): 1540 nM

- EC50 (LPA2; LPA2 (nM) EC50, Table 1): > 30000 nM
- IC50 (LPA2; LPA2 (nM) IC50, Table 1): > 30000 nM
SMILES: CCCCCCCC/C=C\CCCCCCC[C@H]1OC[C@H](COP(=O)(O)O)O1 [Analog 23]

SMILES: CCCCCCCC/C=C\CCCCCCC[C@H]1OC[C@H](COP(O)(O)=S)O1 [Analog 24]
- IC50 (LPA2): > 30000 nM
- EC50 (LPA2; LPA2 (nM) EC50, Table 1): 1320 nM

- EC50 (LPA2; LPA2 (nM) EC50, Table 1): 1170 nM
- IC50 (LPA2; LPA2 (nM) IC50, Table 1): > 30000 nM
SMILES: CCCCCCCC/C=C\CCCCCCC[C@H]1OC[C@@H](COP(=O)(O)O)O1 [Analog 25]
